Data on 17 molecules can be found in ChEMBL document CHEMBL3045174, “Synthesis and Insecticidal Activity of Alkylated N-Benzoyl-N-Phenylureas and Their Toxicity to Aquatic Invertebrate” (J Pestic Sci, 1998).

SMILES strings stand for the structures.

Data set [1] relates to Plutella xylostella. In words: Insecticidal activity against second or third-instar Plutella xylostella (diamondback moth) in compound treated cabbage leaves at 26 degC. The format is functional.
A short description of data set [2]: Lipophilicity, log P of the compound by HPLC method. The data set is classed as physicochemical.
Data set [3] relates to Daphnia magna. Nature of the data set: Toxicity in Daphnia magna assessed as […] concentration measured up to 48 hr. The format is organism-based.

For `O=C(NC(=O)N(CC(F)(F)F)c1cc(Cl)c(Oc2ncc(C(F)(F)F)cc2Cl)c(Cl)c1)c1c(F)cccc1F`, in data set [1], the LC90 worked out at 1.25 ppm.
Still for that read-out and setting: with `O=C(NC(=O)c1c(F)cccc1F)Nc1cc(Cl)c(OC(F)(F)C(F)F)c(Cl)c1` [HEXAFLUMURON] the figure was 0.04 ppm.
`O=C(NC(=O)c1c(F)cccc1F)Nc1cc(Cl)c(Oc2ncc(C(F)(F)F)cc2Cl)c(Cl)c1` [CHLORFLUAZURON]: in data set [1], the LC90 came to 0.04 ppm. Further, in data set [2], the logP turned out to be 5.71.
`CN(C(=O)NC(=O)c1c(F)cccc1F)c1ccc(Oc2ccc(C(F)(F)F)cc2Cl)c(F)c1` gave an LC90 in data set [1] of 0.04 ppm. The EC50 in data set [3] turned out to be 500 ppb.
`O=C(NC(=O)N(Cc1ccccc1)c1cc(Cl)c(Oc2ncc(C(F)(F)F)cc2Cl)c(Cl)c1)c1c(F)cccc1F`: in data set [1], the LC90 was found to be 5 ppm.
On the same count and under the same terms, with `CCN(C(=O)NC(=O)c1c(F)cccc1F)c1cc(Cl)c(Oc2ncc(C(F)(F)F)cc2Cl)c(Cl)c1` the figure was 0.3 ppm.
As to `CN(C(=O)NC(=O)c1c(F)cccc1F)c1cc(Cl)c(F)c(Cl)c1F`, in data set [1], the LC90 is 0.15 ppm. Further, the EC50 in data set [3] is given as greater than 500 ppb.
Taken in the same sequence, the figures for `CN(C(=O)NC(=O)c1c(F)cccc1F)c1ccc(-c2ccc(Br)cc2)cc1` were 0.04 ppm and 150 ppb.
Turning to `CN(C(=O)Nc1cc(Cl)c(Oc2ncc(C(F)(F)F)cc2Cl)c(Cl)c1)C(=O)c1c(F)cccc1F`, the LC90 in data set [1] is 10 ppm. The logP in data set [2] amounted to 7.26. In data set [3], the EC50 is greater than 500 ppb.
Taken in the same sequence, the figures for `CN(C(=O)c1c(F)cccc1F)C(=O)N(C)c1cc(Cl)c(Oc2ncc(C(F)(F)F)cc2Cl)c(Cl)c1` were 0.3 ppm, 4.76 and greater than 500 ppb.
For `O=C(NC(=O)c1c(F)cccc1F)Nc1ccc(Oc2ccc(C(F)(F)F)cc2Cl)cc1F` [FLUFENOXURON], in data set [1], the LC90 was found to be 0.04 ppm.
Take `CC(C)N(C(=O)NC(=O)c1c(F)cccc1F)c1cc(Cl)c(Oc2ncc(C(F)(F)F)cc2Cl)c(Cl)c1`: the LC90 in data set [1] is reported as 0.8 ppm.
`CN(C(=O)NC(=O)c1c(F)cccc1F)c1cc(Cl)c(Oc2ncc(C(F)(F)F)cc2Cl)c(Cl)c1` came in with an LC90 in data set [1] of 0.08 ppm. Besides, the logP in data set [2] turned out to be 4.21. The EC50 in data set [3] was 450 ppb.
`O=C(NC(=O)c1c(F)cccc1F)Nc1cc(Cl)c(F)c(Cl)c1F` [TEFLUBENZURON] registered an LC90 in data set [1] of 0.02 ppm.
With `CN(C(=O)NC(=O)c1c(F)cccc1F)c1ccc(Cl)cc1`, the LC90 in data set [1] turned out to be 12.5 ppm. Further, the EC50 in data set [3] was greater than 500 ppb.
`O=C(NC(=O)c1c(F)cccc1F)Nc1ccc(Cl)cc1` [DIFLUBENZURON] displayed an LC90 in data set [1] of 12.5 ppm.
On to `CN(C(=O)NC(=O)c1c(F)cccc1F)c1ccc(Oc2ccc(C(F)(F)F)cc2Cl)c(Cl)c1`, for which the LC90 in data set [1] was determined as 0.04 ppm. Besides, in data set [3], the EC50 is given as 100 ppb.

For orientation: logP means a log measure of how a compound divides between an organic and an aqueous phase.
